Source: patent US20260315486A1, “ALECTINIB FOR THE TREATMENT OF ALK FUSION-POSITIVE SOLID OR CNS TUMOURS” (Hoffmann-La Roche Inc., priority 2023, published 2026)

Key:
[1] = Peters et al., 2017; cited from earlier work
[2] = system: ALK fusion-positive solid or CNS tumours; assay: Paediatric clinical trial, Part 1 safety run-in: investigator-reported tumour response (RANO / RECIST v1.1 / INRC); type: in vivo, human (paediatric patients)
Description: The study consists of three parts, all enrolling paediatric participants with solid or CNS tumours with known ALK fusion for whom prior treatment has proven to be ineffective or for whom there is no satisfactory treatment available: • Part 1, dose confirmation and safety run-in: to identify the RP2D for paediatric participants, achieving the exposure observed in the adult population • This portion will consist of a safety run-in with a minimum of 6 participants (up to approximately 18 participants) to assess the safety, tolerability, and pharmacokinetics of alectinib in the paediatric population. The initial paediatric dose will be assessed and refined by modelling and simulation prospectively. • Part 2, initial expansion: to evaluate the safety and preliminary efficacy of alectinib in newly enrolled paediatric participants treated at the paediatric RP2D. A minimum of 10 participants will be enrolled in this part of the study. If 4 or more participants achieve an objective response to alectinib (as described in Part 2, below), additional expansion will be performed. • Part 3, additional expansion: This portion of the study will enroll approximately 14 additional paediatric participants. An integrated efficacy analysis accounting for every participant treated at paediatric RP2D across all cohorts will be used for the confirmation of the efficacy of alectinib.
(§1) Alectinib will be administered orally or via feeding tube to participants BID on Days 1-28 of each 28-day cycle. All participants will be closely monitored for adverse events (regardless of relationship to study drug) throughout the study and for at least 28 days after the final dose of study treatment or until initiation of a new anti-cancer therapy, whichever occurs first.
Response will be assessed by the investigator on the basis of physical examinations, computed tomography (CT) scans, and other modalities where relevant (e.g., magnetic resonance imaging [MRI] scans, brain scans, bone marrow examinations, fluorodeoxyglucose-positron emission tomography (FDG-PET), metaiodobenzoguanidine [MIBG] scan), according to RANO, INRC, and RECIST v1.1 (see below). Tumour assessment imaging should include all areas of known disease.
An objective response should be confirmed by repeat assessments ≥4 weeks after initial documentation. The same radiographic procedure used to assess disease sites at screening should be used throughout the study (e.g., the same contrast protocol for CT scans). To the extent that is feasible, assessments should be performed by the same evaluator to ensure internal consistency across visits.
Selected sections from the Response Evaluation Criteria in Solid Tumors (RECIST), Version 1.1 (Eisenhauer et al., 2009, Eur J Cancer, 45:228-47) are presented below, with slight modifications.
Antitumor activity will be assessed based on clinical and radiographic evidence as described by the INRC (Park et al. 2017, Clin Oncol; 35:2580-7).
Antitumor activity will be assessed based on clinical and radiographic evidence as described by the RANO criteria.
The primary efficacy endpoint is ORR in participants treated at the paediatric RP2D, as assessed by BICR, defined as the proportion of participants with an objective response. The objective response for individual participants will be assessed per RECIST v1.1 for participants with extracranial tumours, and per RANO for participants with primary CNS tumours, and INRC for neuroblastoma. An objective response is defined as a CR or PR per disease-specific response criteria, confirmed ≥4 weeks apart in two separate tumour assessments. Participants not meeting these criteria (including participants without a postbaseline tumour assessment) will be considered non-responders.
Patients with ALK fusion-positive solid or CNS tumours for whom prior treatment has proven to be ineffective or for whom there is no satisfactory treatment available, less than 18 years of age, were eligible. […]

[3] = Paediatric clinical trial, Part 1 safety run-in: safety and tolerability (dose-limiting toxicities, adverse events); type: in vivo, human (paediatric patients)
Description: as §1
Owing to the limitations of predicting exposure in children who are <2 years old, before enrolment of participants <2 years old, the investigator must discuss a participant's case with the Medical Monitor until at least 3 participants who are ≥2-6 years old have completed one cycle of treatment. The first participant enrolled must complete at least 8 days of treatment without a DLT before subsequent participants can enroll. If a dose adjustment is required because of toxicity, the same approach will be taken for the first participant at the new dose level. Participants will be closely monitored for adverse events during a DLT assessment window of one cycle (28 days). Participants who discontinue from the study prior to completing the DLT assessment window or who complete <80% (i.e., […]) of the prescribed therapy for that cycle for reasons other than a DLT will be considered non-evaluable. DLT non-evaluable participants will be replaced, unless the Medical Monitor determines that replacement is not necessary for a dose adjustment decision. The Medical Monitor will review all participants who take prohibited therapies, foods, or supplements or who receive supportive care during the DLT assessment window that would confound the evaluation of DLTs (not including supportive care described below as part of the DLT definition) to determine DLT evaluability and whether such participants will be replaced.
During the safety run-in phase, any one of the following events will be considered a DLT if it occurs during the DLT assessment window and is assessed by the investigator to be related or possibly related to alectinib (rules for attributing causality are defined below in ‘Adverse events’). Adverse events identified as DLTs, as defined below, must be reported to the Sponsor within 24 hours.
The following will be considered as a DLT: • Any treatment-related death • Grade 4 neutropenia (ANC<500 cells/mm^3 which is equivalent to ANC<0.5×10^9/L) lasting at least 7 days • Febrile neutropenia: ANC<1000 cells/mm^3 (which is equivalent to ANC<1×10^9/L) with a single temperature of >38.3° C. (101° F.) or a sustained temperature of ≥38° C. (100.4° F.) for more than 1 hour • Grade 4 anaemia • Grade 4 thrombocytopenia (i.e., platelet count <25.0×10^9/L) or Grade 3 thrombocytopenia associated with clinically significant bleeding or any thrombocytopenia requiring platelet transfusion. • Of note, the post-surgical platelet threshold for platelets transfusion could be higher. […]

[4] = system: FGFR2; settings: stated without data; cited from earlier work
[5] = stated as known; may result in bradycardia; cited from earlier work
[6] = 7 patients evaluable for efficacy (ALCL patient excluded), investigator, data cut off Jun. 12, 2023
[7] = 7 patients evaluable for efficacy, investigator
[8] = 8 patients, Part 1 safety run-in

SMILES: CCc1cc2c(cc1N1CCC(N3CCOCC3)CC1)C(C)(C)c1[nH]c3cc(C#N)ccc3c1C2=O [Alectinib, 9-ethyl-6,6-dimethyl-8-(4-morpholin-4-yl-piperidin-1-yl)-11-oxo-6,11-dihydro-5H-benzo[b]carbazole-3-carbonitrile]
- CNS penetration [1]: CNS penetrant
- Best Overall Response: responders (CR + PR), number of patients [2, 6]: 4 patients
- Best Overall Response: responders (CR + PR), percent of patients [2, 6]: 57.1%
- Best Overall Response: CR, number of patients [2, 7]: 1 CR
- Best Overall Response: PR, number of patients [2, 7]: 3 PR
- Best Overall Response: Stable Disease, number of patients [2, 7]: 2 patients
- Best Overall Response: Stable Disease, percent of patients [2, 7]: 28.6%
- Best Overall Response (Investigator): Complete Response (CR), number of patients ([2]; N = 8, all enrolled patients): 1
- Best Overall Response (Investigator): Partial Response (PR), number of patients ([2]; N = 8, all enrolled patients): 4
- Best Overall Response (Investigator): Progressive Disease (PD), number of patients ([2]; N = 8, all enrolled patients): 0
- Best Overall Response (Investigator): Stable Disease (SD), number of patients ([2]; N = 8, all enrolled patients): 2
- Best Overall Response (Investigator): Total Responders, number of patients ([2]; N = 8, all enrolled patients): 5
- Best Overall Response (Investigator, %): Complete Response (CR) ([2]; N = 8, all enrolled patients): 12.5%
- Best Overall Response (Investigator, %): Partial Response (PR) ([2]; N = 8, all enrolled patients): 50.0%
- Best Overall Response (Investigator, %): Progressive Disease (PD) ([2]; N = 8, all enrolled patients): 0.0%
- Best Overall Response (Investigator, %): Total Responders ([2]; N = 8, all enrolled patients): 62.5%
- Response, in words ([2]; conclusion, paediatric patients with ALK-fusion positive solid or CNS tumours): majority of patients experiencing a response
- AE-related deaths [3, 8]: no AE-related deaths
- Dose Limiting Toxicities [3, 8]: No Dose Limiting Toxicities were reported
- New safety signals [3, 8]: no new safety signals detected
- Patients with Grade ≥3 related AE [3, 8]: 2 patients
- Patients with a related Adverse Event (AE) [3, 8]: Seven
- Tolerability ([3]; paediatric patients with ALK-fusion positive solid or CNS tumours): generally well tolerated
- Inhibitory activity on FGFR2 [4]: no inhibitory activity
- Negative chronotropic effect [5]: known negative chronotropic effect of alectinib that may result in bradycardia
